This data set relates to corneal endothelial cells. In words: Post-thaw quality of pig corneal endothelium after ultra-fast cooling, with or without DMSO in DMEM. The format is cell-based. To be noted: pig corneal pieces cooled to -196 degrees C by liquid nitrogen blade jet, thawed under 37 degrees C water jet. The source says: Small samples excised from pig corneas were cooled from room temperature (ambient) to −196 degrees C. using an ultra-fast cooling system of the present invention that contains a single liquid nitrogen blade jet and two gas nitrogen blade jets. Pig corneas were processed and cut into approx. 0.5 cm×0.5 cm×0.5 cm pieces, and each piece maintains a full layer of endothelium, i.e., a single layer of corneal endothelial cells of approximately 10 microns in size, on one surface. The tissues are first placed in standard holding media, Dulbecco's Modified Eagle Media (DMEM), at 4 degrees C. A sample holder was made with a holding cavity of 0.5 cm in depth and with a 20 microns thick sheet of stainless steel as its cover sheet. […] The corneal endothelium of each tissue faced to the cover sheet and directly contacted its inner surface, to achieve maximum cooling rate possibly provided by the liquid nitrogen jet for the endothelium and prevent exposure of the cells to liquid nitrogen flows. […] The post-thaw quality of the corneal endothelia was evaluated by quantification of endothelial cell number based on differential interference contrast light microscopy. The cell health was assessed by using cell circularity as a surrogate marker using differential interference contrast light microscopy. […]

As to `C[S+](C)[O-]` [DMSO, dimethyl sulfoxide], the “post-thaw endothelial cell viability (cell count vs fresh tissue, FIG. 19D)” value is reported as “comparable to readings of the fresh corneas” (10% DMSO in DMEM) and “impacted the cell viability due to toxicity” (20% DMSO in DMEM).

(Values after US20210144990A1, “IMPROVED ULTRA-FAST COOLING SYSTEM AND METHODS OF USE” (priority 2018, published 2021).)
